Experimental data: patent US8288367B2, “Substituted estratriene derivatives as 17BETA HSD inhibitors” (Solvay Pharmaceuticals GmBH, priority 2006, dated 2012)

Assays:
17β-HSD3 enzyme = target: T1, 17β-HSD3 enzyme (Homo sapiens, UniProt P37058); assay: Inhibition of 17β-HSD type 3 enzyme in MCF-7 cells stably expressing 17β-HSD3 (HPLC); format: cell-based; conditions: MCF7, MCF-7 cells expressing 17β-HSD3, 2 nM androstenedione; for inhibition at 1 µM: 1 μM compound; for inhibition at 10 µM: 10 μM compound
T1 construct: expressed in transfected cells; host or cells: MCF-7 cell lines stably expressing 17β-HSD3
T1 sequence (P37058 1-310): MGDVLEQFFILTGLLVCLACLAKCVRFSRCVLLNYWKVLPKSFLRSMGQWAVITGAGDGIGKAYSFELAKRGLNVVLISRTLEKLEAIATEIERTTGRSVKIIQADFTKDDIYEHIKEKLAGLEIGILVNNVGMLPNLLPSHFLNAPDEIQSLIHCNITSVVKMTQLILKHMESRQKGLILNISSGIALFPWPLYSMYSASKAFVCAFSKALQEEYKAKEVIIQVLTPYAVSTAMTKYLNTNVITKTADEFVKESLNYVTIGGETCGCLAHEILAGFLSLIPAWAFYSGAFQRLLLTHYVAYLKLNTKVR
Method: The compounds were screened in respect of 17β-HSD3 enzyme activity in vitro on established MCF-7 cell lines, each stably expressing the 17β-HSD3 enzyme. The interconversion of substrate by 17β-HSD3 and the 17β-HSD3 inhibiting activity of chemical compounds in these cell lines were detected by HPLC system.
Varying amounts of the test compounds were incubated in the growth medium of the 17β-HSD3 expressing cells together tritium labeled androstenedione (2 nM). The medium samples were removed after exact incubation time and the reaction is stopped by trichloroacetic acid (TCA). The samples were analyzed by HPLC-coupled flow scintillation analysis.
Conversion: The 17β-HSD3 inhibiting activity of an individual test compound was calculated by comparing the conversion of a control sample without any test compound (referred to as “Negative Control”) to the (reduced) conversion of the test sample containing the particular compound to be tested (referred to as “Test Sample”).

[1] = target: T2, recombinant human 17β-HSD1 (Homo sapiens, UniProt P14061); assay: Recombinant 17β-HSD1 assay (HPLC, 3H-estrone conversion); format: biochemical; conditions: 30 nM estrone, 1 mM NADPH, 30 min RT, read-out: Inhibition of rec. 17β-HSD1; for inhibition at 0.1 µM: 100 nM compound; for inhibition at 1 µM: 0.5 h, 1 μm compound
T2 construct: made in house; host or cells: Sf9 insect cells (baculovirus, Bac to Bac Expression System)
T2 sequence (P14061 1-328): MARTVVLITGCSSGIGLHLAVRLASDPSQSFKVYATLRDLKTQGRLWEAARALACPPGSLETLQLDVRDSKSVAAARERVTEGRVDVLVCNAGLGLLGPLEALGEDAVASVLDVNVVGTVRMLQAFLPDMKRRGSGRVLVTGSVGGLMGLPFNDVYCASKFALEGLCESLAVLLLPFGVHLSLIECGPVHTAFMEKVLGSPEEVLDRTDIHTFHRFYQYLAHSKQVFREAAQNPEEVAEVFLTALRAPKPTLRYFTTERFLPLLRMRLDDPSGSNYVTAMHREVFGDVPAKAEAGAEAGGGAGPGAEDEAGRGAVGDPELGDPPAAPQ
Method: 17β-HSD1 or 17β-HSD2 purification: Recombinant 17β-HSD1 and 17β-HSD2 baculoviruses were generated by the “Bac to Bac Expression System” (Invitrogen). Recombinant 17β-HSD1 or 17β-HSD2 bacmids were transfected to Sf9 insect cells using “Cellfectin Reagent” (Invitrogen). 60 h later cells were harvested; the fractions including 17β-HSD1 or 17β-HSD2 were isolated as described by Puranen et al. (1994). Aliquots were stored frozen until determination of enzymatic activity.
Recombinant 17β-HSD1 assay: Recombinant protein homogenate (0.1 μg/ml) was incubated in 20 mM KH2PO4 pH 7.4 reaction buffer, including protease inhibitors (Complete Protease Inhibitor Cocktail tablet, Roche Diagnostics, 1697498), with 30 nM estrone (Sigma, E9750) as substrate, 800 000 cpm/ml ^3H-estrone (PerkinElmer, NET319001MC) as a tracer substrate, and 1 mM NADPH (Sigma, N1630) as a co-factor for 30 min at RT, in the presence of potential inhibitors at concentrations of 1 μM or 0.1 μM. Inhibitor stock solutions were prepared in DMSO. The enzyme reaction was stopped by addition of trichloroacetic acid (1% final concentration). Samples were centrifuged in a microtiter plate at 4000 rpm for 10 min. Supernatants were applied to reverse phase HPLC on a Waters Symmetry C18 column, equipped with a Waters Sentry Guard column. Isocratic HPLC runs were performed at RT at a flow rate of 1 ml/min of acetonitrile:water 48:52 as running solvent. Radioactivity was monitored in the eluate by a Packard Flow Scintillation Analyzer. Total radioactivity for estrone and estradiol were determined in each sample and percent inhibition of estradiol conversion by the respective inhibitor was calculated
For the calculation of % inhibition the following formula was used:
[formula] Percent inhibition was calculated as follows: % inhibition=100−% conversion

[2] = target: T3, recombinant human 17β-HSD2 (Homo sapiens, UniProt P37059); assay: Recombinant 17β-HSD2 assay (HPLC, 3H-estradiol conversion); format: biochemical; conditions: 50 nM estradiol, 1 mM β-NAD, read-out: Inhibition of rec. 17β-HSD2; for inhibition at 0.1 µM: 100 nM compound; for inhibition at 1 µM: 1 μm compound
T3 construct: made in house; host or cells: Sf9 insect cells (baculovirus, Bac to Bac Expression System)
T3 sequence (P37059 1-387): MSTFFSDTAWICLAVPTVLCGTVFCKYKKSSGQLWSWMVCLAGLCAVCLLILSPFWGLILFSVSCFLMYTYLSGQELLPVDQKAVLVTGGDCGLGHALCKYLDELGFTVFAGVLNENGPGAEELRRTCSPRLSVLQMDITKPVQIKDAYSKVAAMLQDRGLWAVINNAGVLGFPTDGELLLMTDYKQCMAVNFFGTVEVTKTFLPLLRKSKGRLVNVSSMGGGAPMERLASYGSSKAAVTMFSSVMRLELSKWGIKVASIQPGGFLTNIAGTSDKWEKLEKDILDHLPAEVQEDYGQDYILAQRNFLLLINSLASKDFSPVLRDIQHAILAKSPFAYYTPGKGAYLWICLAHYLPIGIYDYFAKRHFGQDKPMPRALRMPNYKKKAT
Method: 17β-HSD1 or 17β-HSD2 purification: Recombinant 17β-HSD1 and 17β-HSD2 baculoviruses were generated by the “Bac to Bac Expression System” (Invitrogen). Recombinant 17β-HSD1 or 17β-HSD2 bacmids were transfected to Sf9 insect cells using “Cellfectin Reagent” (Invitrogen). 60 h later cells were harvested; the fractions including 17β-HSD1 or 17β-HSD2 were isolated as described by Puranen et al. (1994). Aliquots were stored frozen until determination of enzymatic activity. Recombinant 17β-HSD2 assay: Recombinant 17β-HSD2 assay was performed as described for 17β-HSD1 but with following modifications: 6 μg/ml of recombinant protein homogenate, 50 nM Estradiol (Sigma, E8875) as a substrate, 800 000 cpm/ml ^3H-estradiol (PerkinElmer, NET317) as a tracer substrate and 1 mM β-NAD (Sigma N7004) as a co-factor were used. Total radioactivity for estrone and estradiol were determined in each sample and percent inhibition of estrone conversion by the respective inhibitor was calculated. For the calculation of % inhibition the following formula was used: [formula] Percent inhibition was calculated as follows: % inhibition=100−% conversion

| Structure (SMILES) | inhibition at 1 µM (17β-HSD3 enzyme) | inhibition at 10 µM (17β-HSD3 enzyme) | inhibition at 0.1 µM [1] | inhibition at 1 µM [1] | inhibition at 0.1 µM [2] | inhibition at 1 µM [2] |
| --- | --- | --- | --- | --- | --- | --- |
| Cc1cnc(NC(=O)CC[C@@H]2CC(F)(F)[C@@]3(C)CC[C@@H]4c5ccc(C(N)=O)cc5CC[C@H]4[C@H]23)s1 [Compound 8, 17,17-difluoro-15beta-{3-[(5-methyl-1,3-thiazol-2-yl)amino]-3-oxopropyl}estra-1(10),2,4-triene-3-carboxamide] | 4% | 46% | – | – | – | – |
| C[C@]12CC[C@@H]3c4ccc(B(O)O)cc4CC[C@H]3[C@@H]1[C@@H](CCCC(=O)Nc1ccc3c(c1)OCO3)CC2=O [Compound 13, [15alpha-[4-(1,3-benzodioxol-5-ylamino)-4-oxobutyl]-17-oxoestra-1(10),2,4-trien-3-yl]boronic acid] | 18% | 22% | 27% | 52% | -7.6% | 2% |
| C[C@]12CC[C@@H]3c4ccc(B(O)O)cc4CC[C@H]3[C@@H]1[C@@H](CCCC(=O)NC1CCCCC1)CC2=O [Compound 17, [15alpha-[4-(cyclohexylamino)-4-oxobutyl]-17-oxoestra-1(10),2,4-trien-3-yl]boronic acid] | 6% | 45% | 24% | 31% | -5.4% | 1.8% |
| C[C@]12CC[C@@H]3c4ccc(B(O)O)cc4CC[C@H]3[C@@H]1[C@@H](CCCC(=O)N1CCCCC1)CC2=O [Compound 20, [17-oxo-15alpha-(4-oxo-4-piperidin-1-ylbutyl)estra-1(10),2,4-trien-3-yl]boronic acid] | 15% | 57% | – | – | – | – |
| C[C@]12CC[C@@H]3c4ccc(B(O)O)cc4CC[C@H]3[C@@H]1[C@@H](CCCC(=O)NC1CCCCC1)CC2(F)F [Compound 48, [15alpha-[4-(cyclohexylamino)-4-oxobutyl]-17,17-difluoroestra-1(10),2,4-trien-3-yl]boronic acid] | 13% | 63% | 25% | 50% | 6.4% | 12.8% |
| CCN(CC)C(=O)CCC[C@H]1CC(F)(F)[C@@]2(C)CC[C@@H]3c4ccc(B(O)O)cc4CC[C@H]3[C@H]12 [Compound 49, [15alpha-[4-(diethylamino)-4-oxobutyl]-17,17-difluoroestra-1(10),2,4-trien-3-yl]boronic acid] | 62% | 89% | 29% | 50% | 7.7% | 11.6% |
| C[C@]12CC[C@@H]3c4ccc(B(O)O)cc4CC[C@H]3[C@@H]1[C@@H](CCCC(=O)NCc1cccnc1)CC2(F)F [Compound 53, [17,17-difluoro-15alpha-{4-oxo-4-[(pyridin-3-ylmethyl)amino]butyl}estra-1(10),2,4-trien-3-yl]boronic acid] | 4% | 50% | 19% | 50% | 5% | 8.6% |
| C[C@]12CC[C@@H]3c4ccc(B(O)O)cc4CC[C@H]3[C@@H]1[C@@H](CCCC(=O)N1CCCCC1)CC2(F)F [Compound 57, [17,17-difluoro-15alpha-(4-oxo-4-piperidin-1-ylbutyl)estra-1(10),2,4-trien-3-yl]boronic acid] | 28% | 78% | – | – | – | – |
| C[C@]12CC[C@@H]3c4ccc(B(O)O)cc4CC[C@H]3[C@@H]1[C@H](CCC(=O)NCc1ccc3c(c1)OCO3)CC2(F)F [Compound 60, [15beta-{3-[(1,3-benzodioxol-5-ylmethyl)amino]-3-oxopropyl}-17,17-difluoroestra-1(10),2,4-trien-3-yl]boronic acid] | 28% | 67% | 46% | 71% | 9.5% | 12.5% |
| C[C@]12CC[C@@H]3c4ccc(B(O)O)cc4CC[C@H]3[C@@H]1[C@H](CCC(=O)NCc1ccccc1)CC2(F)F [Compound 63, [15beta-[3-(benzylamino)-3-oxopropyl]-17,17-difluoroestra-1(10),2,4-trien-3-yl]boronic acid] | 41% | 88% | 51% | 66% | 12.8% | 16.9% |
| Cc1cccc2c(CCNC(=O)CC[C@@H]3CC(F)(F)[C@@]4(C)CC[C@@H]5c6ccc(B(O)O)cc6CC[C@H]5[C@H]34)c[nH]c12 [Compound 67, [17,17-difluoro-15beta-(3-{[2-(7-methyl-1H-indol-3-yl)ethyl]amino}-3-oxopropyl)estra-1(10),2,4-trien-3-yl]boronic acid] | 40% | 84% | 47% | 66% | 10% | 15.8% |
| C[C@]12CC[C@@H]3c4ccc(NCc5ccccc5)cc4CC[C@H]3[C@@H]1[C@@H](CCCC(=O)N1CCOCC1)CC2=O [Compound 98, 3-(benzylamino)-15alpha-(4-morpholin-4-yl-4-oxobutyl)estra-1(10),2,4-trien-17-one] | 15% | 48% | – | – | – | – |
